Measured values: paper PMC12355554, “Development of novel mitochondrial pyruvate carrier inhibitors for breast cancer treatment” (The Journal of Biological Chemistry, 2025)
Read-outs that look alike come from different tables or passages of the source.

Columns and labels:
[1] = molecular target: T1, mitochondrial pyruvate carrier (MPC) (Mus musculus, UniProt P63030+Q9D023); experiment: Seahorse XFe96 Pyr-driven respiration in rPFO-permeabilized 4T1 cells; assay type: cell-based, murine; conditions: for effect on Pyr-driven respiration: Pyr/Mal, candidate compounds 1 μM
T1 construct: host or cells: 4T1 murine breast cancer cells, rPFO-permeabilized
T1 sequence (P63030 1-109): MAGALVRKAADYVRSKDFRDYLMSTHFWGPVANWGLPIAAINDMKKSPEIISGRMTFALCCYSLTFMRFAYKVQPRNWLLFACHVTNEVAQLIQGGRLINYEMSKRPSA
T1 sequence (Q9D023 1-127): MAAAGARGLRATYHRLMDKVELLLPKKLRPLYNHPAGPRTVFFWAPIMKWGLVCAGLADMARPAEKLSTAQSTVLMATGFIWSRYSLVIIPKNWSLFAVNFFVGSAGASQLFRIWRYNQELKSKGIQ
Protocol: After validating the ability of rPFO to permeabilize 4T1 cells without damaging mitochondria, we sought to investigate the ability of candidate compounds to inhibit Pyr-driven respiration in these cells (Fig. 1, D–G). In this regard, 4T1 cells were seeded in Seahorse XFe96 well plates and were incubated to reach confluence (∼18–24 h) in growth media (+serum). Growth media were then aspirated, and cells were washed with MAS buffer to remove serum and endogenous metabolic substrates. Serum- and substrate-starved cells were then incubated for equilibration in MAS buffer in a non-CO2 incubator. Inhibitors, rPFO, and substrate milieus were prepared in MAS buffer to be injected in succession to allow for real-time observation of the effects of compound-treated cultures on oxygen consumption rates (OCRs) when compared with vehicle (dimethyl sulfoxide [DMSO])-treated cells. Equilibrated intact cells were allowed to establish basal respiratory rates, followed by the injection of candidate compounds C1 to C4 at varying dose-titrated concentrations, respectively, and acute decreases in OCR were observed (Fig. 1, D–G). Compound exposure was performed in intact cells to avoid influence of rPFO on acute cellular targets. Cells were then exposed to rPFO, followed by the carbonyl cyanide-p-trifluoromethoxyphenylhydrazone (FCCP)–stimulated Pyr substrate milieu, which consisted of Pyr, malate (Mal), and dichloroacetate (DCA) to fuel uninhibited Pyr respiratory flux and maximal respiration. Mal and DCA were included to allow for continuous TCA cycle function without acetyl CoA feedback–mediated inhibition (Mal) or Pyr dehydrogenase–regulated inhibition (DCA) of Pyr uptake. Here, we observed a dose-dependent inhibition of Pyr-driven respiration in cells treated with the candidate compounds, allowing for logarithmic dose–response curves to be generated, and 50% inhibitory concentrations (IC50) to be calculated (Fig. 1, D–G). Finally, complex I and […] were injected to halt respiration and end the assay. […] In this regard, the fluoro-aminocarboxycoumarin derivative C4 has been designated as the lead candidate for further investigation.
(§1) Permeabilized cell assays were performed using rPFO as described previously. 4T1 cells were seeded (20,000 cells/well) onto Seahorse XFe96 well plates and incubated overnight in growth media at 37 °C and 5% CO2 for adherence. On the day of the assay, growth media were aspirated and replaced with MAS buffer (70 mM sucrose, 220 mM mannitol, 10 mM potassium phosphate monobasic, 5 mM magnesium chloride, 2 mM Hepes, and 1 mM EGTA) after 3X rinse of growth media to remove serum and endogenous metabolic substrates, and incubated at 37 °C in a non-CO2 incubator. Respective inhibitor and substrate milieu's were prepared in MAS buffer for port injections A–D at 8X, 9X, 10X, and 11X the target cell concentrations to account for intrinsic dilution factor of in situ injections of each port. […] Final substrate concentrations for specific tests were as follows: (5 mM Pyr , 0.5 mM Mal, 2 mM DCA; 10 mM glutamate, 0.5 mM Mal, 2 mM DCA; 10 mM succinate, 2 μM rotenone; 20 mM methyl Pyr, 5 mM Pyr, 0.5 mM Mal, and 2 mM DCA). ATP rate assays and mitochondrial stress tests were performed according to the manufacturer's (Agilent) instructions.

[2] = tested on: glutamate-driven respiration in 4T1 cells; experiment: Seahorse glutamate-driven respiration in permeabilized 4T1 cells; assay type: cell-based, murine; conditions: Glu/Mal, candidate compounds 1 μM
Text: (§2) Although our initial experiments and previous literature illustrate the ability of the candidate compounds to inhibit Pyr-driven respiration, we sought to investigate the ability of candidate compounds to inhibit respiration fueled by other metabolic substrates, glutamate and succinate (Fig. 2). Glutamate, similar to Pyr oxidation, results in NADH equivalents that fuel complex I-mediated respiration, and succinate metabolism offers FADH2 for electrons in complex II-driven respiratory processes. […] To further validate the mode of action of the candidate compounds, a series of similar Seahorse experiments were employed (Fig. 2, A–C). In these experiments, 4T1 cells were first permeabilized and were then offered metabolic substrates Pyr (Pyr/Mal; Fig. 2A), glutamate (Glu/Mal, Fig. 2B), or succinate (Fig. 2C), and the resulting OCR was observed. As described previously, Mal and DCA were included in the substrate milieu of glutamate respiration experiments. […] To validate that inhibition of Pyr respiration is due to mitochondrial Pyr uptake and not other Pyr-processing enzymes (i.e., Pyr dehydrogenase), a parallel experiment using methyl pyruvate (MePyr) was employed (Fig. 2, E and F). MePyr is permeable to the mitochondrial membranes, where in the matrix, mitochondrial esterase hydrolysis activity provides Pyr.
as §1

[3] = tested on: succinate-driven respiration in 4T1 cells; experiment: Seahorse succinate-driven respiration in permeabilized 4T1 cells; assay type: cell-based, murine; conditions: candidate compounds 1 μM
Text: as §2, §1

[4] = molecular target: T1, mitochondrial pyruvate carrier (MPC); experiment: Michaelis-Menten kinetics of mitochondrial pyruvate uptake (Seahorse OCR); assay type: cell-based, murine; conditions: permeabilized 4T1 cells; 10 nM inhibitor
Protocol: To further investigate the type of inhibition, we employed Michaelis–Menten experiments in modified Seahorse XFe96–based assays similar to described previously, and based on the model that Pyr uptake is directly coupled to NADH oxidation and oxygen consumption (Fig. 3A). In these experiments, 4T1 cells were permeabilized and were then administered varying concentrations of Pyr in the presence or the absence of 10 nM C3 or C4, respectively (Fig. 3, B–F). A rise in OCR indicated Pyr-driven respiration, where subsequent addition of FCCP stimulated maximal respiration, and substrate-dependent increases in OCR were observed and normalized to protein content (Fig. 3, B–F). In this regard, Michaelis–Menten curves were generated using the FCCP-stimulated OCR in C3- or C4-treated and -untreated cells where Michaelis–Menten parameters of maximal velocity (Vmax) and half-maximal substrate concentrations (Km) were calculated (Fig. 3, E–G). Michaelis–Menten assumptions include direct and irreversible substrate and carrier interaction that results in the OCRs and is analogous to standard enzymatic Michaelis–Menten models (Fig. 3A). […] Thus, C3 decreased the Vmax and increased the Km, not consistent with competitive inhibition where high substrate concentrations titrate out the inhibitor to reach intrinsic Vmax values. However, potential covalent bonding of inhibitor may limit the ability of Pyr to displace C3 from the active site, resulting in the observed “mixed” mode of inhibition.

[5] = molecular target: T1, mitochondrial pyruvate carrier (MPC); experiment: Methyl pyruvate reversal of inhibited Pyr-driven respiration; assay type: cell-based, murine; conditions: permeabilized 4T1 cells; 20 mM methyl Pyr
Text: as §2
Permeabilized cell assays were performed using rPFO as described previously. […]

[6] = Intrinsic CL in human liver microsomes; assay type: in vitro ADME; conditions: human, liver microsomes; exceeding the experimental endpoints
[7] = read-out: IC50, inhibition of Pyr-driven respiration
[8] = average ± SEM, read-out: IC50, inhibition of Pyr-driven respiration (Fig. 1G, unit inferred)

With `O=C(O)c1cc2ccc(N(c3ccc(F)cc3)c3ccc(F)cc3)cc2oc1=O` [C1, 7-(bis(4-fluorophenyl)amino)-2-oxo-2H-chromene-3-carboxylic acid] the IC50 [1, 7] was over 1000 nM.
In the case of `CN(c1ccc(F)cc1)c1ccc2cc(C(=O)O)c(=O)oc2c1` [C2, 7-((4-fluorophenyl)(methyl)amino)-2-oxo-2H-chromene-3-carboxylic acid], the “effect on Pyr-driven respiration” value [1] is reported as “specifically inhibits”, the IC50 [1, 8] is reported as 148 ± 8.9 nM and the IC50 [1, 7] is reported as 147 nM. For the same molecule, the “effect on glutamate-driven respiration” value [2] was “without substantial effects” and the “effect on succinate-driven respiration” value [3] was “without substantial effects”.
For `CN(Cc1ccccc1)c1ccc2cc(C(=O)O)c(=O)oc2c1` [C3, 7-(benzyl(methyl)amino)-2-oxo-2H-chromene-3-carboxylic acid], the “effect on Pyr-driven respiration” value [1] was “specifically inhibits”, the IC50 [1, 8] was 18.3 ± 0.8 nM and the IC50 [1, 7] was 18 nM. The “effect on glutamate-driven respiration” value [2] was “without substantial effects”, the “Vmax of Pyr-driven FCCP-stimulated OCR” value [4] was 10.8 pmol/min and the mode of inhibition [4] was “mixed”. The “reversal of Pyr-driven respiration effects by methyl pyruvate” value [5] was “completely reversed”, the “effect on succinate-driven respiration” value [3] was “without substantial effects” and the half-life [6] was over 2 h.
With `CN(Cc1ccc(F)cc1)c1ccc2cc(C(=O)O)c(=O)oc2c1` [C4, 7-((4-fluorobenzyl)(methyl)amino)-2-oxo-2H-chromene-3-carboxylic acid] the “effect on Pyr-driven respiration” value [1] was “specifically inhibits”, the IC50 [1, 8] was 16.6 ± 4.8 nM and the IC50 [1, 7] was 16 nM. For the same molecule, the “effect on glutamate-driven respiration” value [2] was “without substantial effects”, the mode of inhibition [4] was “competitive” and the “effect on succinate-driven respiration” value [3] was “without substantial effects”.
